The results in this text go back to patent US20090111781A1, “Use of Cymipristone Type Compounds in Aids Treatment” (SHANGHAI THREE-ALLIANCE BIOTECHNOLOGIES CO., LTD., priority 2005, published 2009).

The structures appear in SMILES notation. ≈ marks a conversion by molar mass, not a printed value.

In general, IC50 refers to the concentration that gives 50% inhibition. A high value points to a need for much substance.

In one series the target is T1, estrogen receptor ERα (Homo sapiens, UniProt P03372).
T1 sequence (P03372 1-595): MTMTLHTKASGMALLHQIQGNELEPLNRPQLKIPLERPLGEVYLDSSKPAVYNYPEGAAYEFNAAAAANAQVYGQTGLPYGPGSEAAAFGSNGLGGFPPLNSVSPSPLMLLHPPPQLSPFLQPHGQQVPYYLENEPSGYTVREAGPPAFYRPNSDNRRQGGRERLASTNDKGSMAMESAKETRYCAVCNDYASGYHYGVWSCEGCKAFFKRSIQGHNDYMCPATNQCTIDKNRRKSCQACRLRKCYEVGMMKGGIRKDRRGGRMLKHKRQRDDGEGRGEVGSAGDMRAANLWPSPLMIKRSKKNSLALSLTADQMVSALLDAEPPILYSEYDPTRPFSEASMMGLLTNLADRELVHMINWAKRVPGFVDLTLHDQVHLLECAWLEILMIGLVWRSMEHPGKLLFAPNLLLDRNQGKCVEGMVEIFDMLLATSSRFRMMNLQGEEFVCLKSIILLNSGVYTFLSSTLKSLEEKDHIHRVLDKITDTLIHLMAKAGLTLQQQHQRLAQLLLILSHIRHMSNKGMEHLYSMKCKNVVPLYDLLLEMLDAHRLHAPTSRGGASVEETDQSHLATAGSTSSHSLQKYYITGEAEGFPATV
Kind of series: Binding activity on human nuclear receptor ERα. The conditions noted are these: mean ± SD, n = 4. The method, then: (§1) Buffer solution is composed of 25 mM NaPO4, 20 mM NaMoO4, 10 mM KF and 10% glycerol (pH=7.3) and stored under 4° C. Stock solution is prepared with CHAPS and DTT and stored under −20° C. […] Add 2.5 μl/hole into 96-pore plate. Take out appropriate amount of buffer solution reserve into solution to make the final concentration of CHAPS and DDT to become 0.25 mM and 2 mM respectively. Add protease inhibitors (aprotinin and leupeptin) to make its final concentration to become 1 μg/μl, and place in an ice bath. After adding human nuclear receptor GR (1:8), PR (1:100), ER (1:2000), AR (1:200) and MR (1:40) into the reaction system respectively, adequately mix suitable quantity of [^3H]-dexamethasone, [^3H]-progesterone, [^3H]-estradiol and [^3H]-DHT (from Amersham), rapidly add into 96-pore plate (100 μl/pore) and incubate overnight under 4° C. On the next day, add 25 μl of hydroxyapatite suspension into each pore and mix with shaking. After incubating for 10 min, separate by centrifuge for 3 min at 2500 rpm. The precipitate is washed with 100 μl of buffer solution and separated by centrifuge twice. Add 150 μl of scintillation solution (from Perkin Elmer) into each pore, mix with shaking and count by MicroBeta counter.

The target of a further series is T2, androgen receptor (AR) (Homo sapiens, UniProt P10275).
T2 sequence (P10275 1-920): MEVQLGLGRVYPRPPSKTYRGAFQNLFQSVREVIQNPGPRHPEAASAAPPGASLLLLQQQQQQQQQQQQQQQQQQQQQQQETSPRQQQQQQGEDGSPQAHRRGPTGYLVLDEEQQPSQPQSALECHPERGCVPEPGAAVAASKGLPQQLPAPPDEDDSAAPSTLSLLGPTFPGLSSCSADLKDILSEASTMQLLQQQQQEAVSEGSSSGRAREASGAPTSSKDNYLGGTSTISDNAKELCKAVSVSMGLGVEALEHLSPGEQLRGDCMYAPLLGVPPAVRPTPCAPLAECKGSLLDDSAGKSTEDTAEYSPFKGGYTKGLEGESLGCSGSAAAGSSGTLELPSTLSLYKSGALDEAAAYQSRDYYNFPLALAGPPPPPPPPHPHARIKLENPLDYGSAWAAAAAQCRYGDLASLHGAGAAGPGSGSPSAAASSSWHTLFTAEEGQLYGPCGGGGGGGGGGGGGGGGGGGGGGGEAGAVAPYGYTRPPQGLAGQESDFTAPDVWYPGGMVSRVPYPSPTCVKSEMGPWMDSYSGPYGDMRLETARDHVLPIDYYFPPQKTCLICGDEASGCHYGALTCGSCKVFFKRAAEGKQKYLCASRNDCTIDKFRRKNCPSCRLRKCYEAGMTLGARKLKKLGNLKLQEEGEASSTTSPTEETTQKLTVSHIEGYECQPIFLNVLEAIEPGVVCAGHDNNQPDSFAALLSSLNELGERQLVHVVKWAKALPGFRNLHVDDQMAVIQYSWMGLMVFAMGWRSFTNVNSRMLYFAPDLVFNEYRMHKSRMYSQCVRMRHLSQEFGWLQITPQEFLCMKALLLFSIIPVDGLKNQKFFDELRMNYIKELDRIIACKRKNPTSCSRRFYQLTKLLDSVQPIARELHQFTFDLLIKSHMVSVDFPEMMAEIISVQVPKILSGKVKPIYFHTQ
Kind of series: Binding activity on human nuclear receptor AR. The note with it: mean ± SD, n = 4. On the procedure: as §1

The test system of the next series is MT-4 cells. In words: Cytotoxicity in MT-4 cell culture by cytopathic method (CPE). The class given is cell-based, human. On the procedure:
(§2) Set virus TCID50 determination group and cell control group. Each concentration is duplicated in two pore. Incubate under 37° C., 5% CO2 and saturated humidity in an incubator. Daily observe the cytopathy in above culture plate by microscope, record the degree of cytopathy with routine method, and calculate the 50% toxic concentration (TC50) and maximum nontoxic concentration (TC0) of drug according to Reed & Muench method. […] [formula]
On the technique in general: Damage to the host cells serves as the signal in cytopathic effect assays.

Assay in series [1]: as above
The class given is cell-based, human. The conditions noted are these: human, MT-4 cells infected with HIV-1 IIIB, read-out: Cytotoxicity TC50, CPE. The method, then: as §2

The nature of series [2]: MTT toxicity on PBMC infected by HIV-1 AZT-sensitive strain 018a. The note with it: human, PBMC, 018a. On the procedure: Collect cells with curette, infect cells with 10^−2 AZT sensitive (018a) or AZT resistant (018c) virus strain liquid, and adsorb for 2 hours, Wash off unabsorbed virus with 1640 culture medium without serum, prepare cells infected by virus to 1×10^6/ml with culture solution, and inoculate on 96-pore culture plate, 100 μl/pore. […] Set cell control group and virus infected cell control group. Incubate under 37° C. and 5% CO2. On the fourth day (96 hours), pipette out the supernatant liquid and store under −20° C. for determination of HIV-1 P24 antigen titer and calculation of drug inhibitory action. Add MTT staining to cells for determination of cytotoxicity. Determination of cytotoxicity by MTT staining: Add 10 μl of 5 mg/ml MTT stain into each pore, continue to incubate under 37° C., 5% CO2 and saturated humidity for 4 hours. […] Determine the HIV-1 P24 antigen titer according to the operation procedure provided by the HIV-1 P24 antigen reagent kit. Compare the drug-added group with virus control group. […] Calculation method of 50% toxic concentration (CC50), 50% effective concentration (EC50) and selection index (SI): […]

`CC#C[C@]1(O)CC[C@H]2[C@@H]3CCC4=CC(=O)CCC4=C3[C@@H](c3ccc(N(C)C4CCCCC4)cc3)C[C@@]21C` [Cymipristone, 11β-[4-(N-methyl-N-cyclohexylamino)phenyl]-17α-(1-propynyl)-17β-hydroxyl-4,9-estradiene-3-one]: the IC50 on estrogen receptor ERα came out at 516 ± 62.8 nM; on androgen receptor (AR) it was 69.6 ± 15.4 nM. Also, the “Cytotoxicity TC50, CPE” value in the series on MT-4 cells came to 7.704 µg/mL. The CC50 in series [1] worked out at 15500 nM. Moreover, the CC50 at 96 h was 130 µg/mL (≈ 261 µM) in series [2] (50% toxic concentration CC50, Average); 104 µg/mL (≈ 208 µM) in series [2] (50% toxic concentration CC50, Experiment 1); 156 µg/mL (≈ 314 µM) in series [2] (50% toxic concentration CC50, Experiment 2).
